The results in this text go back to US11135234B2, “Effective aminoglycoside antibiotic for multidrug-resistant bacteria” (MICROBIAL CHEMISTRY RESEARCH FOUNDATION, priority 2015, dated 2021).

One test concerns P. aeruginosa MSC01035. The experiment in a line: MIC, agar plate dilution method, P. aeruginosa MSC01035. Type of test: cell-based, Pseudomonas aeruginosa. Particulars: P. aeruginosa MSC01035, ABK-resistant; for MIC: Pseudomonas aeruginosa, read-out: minimal inhibitory concentration (MIC). The gist of the method:
(§1)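 Japan Society of Chemotherapy agar dilution protocol used. MIC reported in μg/mL.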

Another test has as its system S. aureus MF490. The test can be described thus: MIC, agar plate dilution method, S. aureus MF490. Type of test: cell-based, Staphylococcus aureus. To be noted: for MIC: Staphylococcus aureus, MRSA, read-out: minimal inhibitory concentration (MIC); for minimal inhibitory concentration (MIC): S. aureus MF490, MRSA. The gist of the method: as §1
Test [1] relates to A. baumannii ATCC BAA-1710. The experiment in a line: MIC, agar plate dilution method, A. baumannii ATCC BAA-1710. Type of test: cell-based, Acinetobacter baumannii. To be noted: for MIC: Acinetobacter baumannii, ATCCBAA1710, A. baumannii ATCC BAA-1710, MDRA, read-out: minimal inhibitory concentration (MIC); for minimal inhibitory concentration (MIC): A. baumannii ATCC BAA-1710, MDRA. The gist of the method: as §1

Another test concerns E. faecium ATCC19434. The experiment in a line: MIC, agar plate dilution method, E. faecium ATCC19434. Type of test: cell-based, Enterococcus faecium. To be noted: for MIC: Enterococcus faecium, ATCC19434, E. faecium ATCC19434, read-out: minimal inhibitory concentration (MIC); for minimal inhibitory concentration (MIC): E. faecium ATCC19434. The gist of the method: as §1
The test system of test [2] is K. pneumoniae ATCC BAA-2146. The experiment in a line: MIC, agar plate dilution method, K. pneumoniae ATCC BAA-2146. Type of test: cell-based, Klebsiella pneumoniae. Particulars: for MIC: Klebsiella pneumoniae, ATCCBAA2146, K. pneumoniae ATCC BAA-2146, NDM-producing strain, read-out: minimal inhibitory concentration (MIC); for minimal inhibitory concentration (MIC): K. pneumoniae ATCC BAA-2146, NDM-producing strain. The method, boiled down: as §1

Another test deals with S. aureus RN4220/pMS520. The experiment in a line: MIC, agar plate dilution method, S. aureus RN4220/pMS520. Type of test: cell-based, Staphylococcus aureus. To be noted: for MIC: Staphylococcus aureus, MRSA, read-out: minimal inhibitory concentration (MIC), S. aureus RN4220/pMS520, MRSA; for minimal inhibitory concentration (MIC): S. aureus RN4220/pMS520, MRSA. The method, boiled down:
as §1

For another test, the system named is P. aeruginosa PAO1. The test can be described thus: MIC, agar plate dilution method, P. aeruginosa PAO1. Type of test: cell-based, Pseudomonas aeruginosa. To be noted: for MIC: Pseudomonas aeruginosa, PAO1, P. aeruginosa PAO1, Sensitive bacterium, read-out: minimal inhibitory concentration (MIC); for minimal inhibitory concentration (MIC): P. aeruginosa PAO1, Sensitive bacterium. The gist of the method:
as §1

The next test has as its system E. coli JM109/pMW218. The experiment in a line: MIC, agar plate dilution method, E. coli JM109/pMW218. Type of test: cell-based, Escherichia coli. Particulars: for MIC: Escherichia coli, JM109/PMW218, E. coli JM109/pMW218, Sensitive bacterium, read-out: minimal inhibitory concentration (MIC); for minimal inhibitory concentration (MIC): E. coli JM109/pMW218, Sensitive bacterium. The gist of the method: as §1

For the next test, the system named is S. aureus RN4220. The experiment in a line: MIC, agar plate dilution method, S. aureus RN4220. Type of test: cell-based, Staphylococcus aureus. Particulars: for MIC: Staphylococcus aureus, RN4220, S. aureus RN4220, Sensitive bacterium, read-out: minimal inhibitory concentration (MIC); for minimal inhibitory concentration (MIC): S. aureus RN4220, Sensitive bacterium. The method, boiled down:
as §1

Another test deals with S. marcescens GN6944. The test can be described thus: MIC, agar plate dilution method, S. marcescens GN6944. Type of test: cell-based, Serratia marcescens. Particulars: S. marcescens GN6944, GM-resistant; for MIC: Serratia marcescens, read-out: minimal inhibitory concentration (MIC). The method, boiled down: as §1
Another test concerns P. aeruginosa PAO1/GN315. The test can be described thus: MIC, agar plate dilution method, P. aeruginosa PAO1/GN315. To be noted: for MIC: Pseudomonas aeruginosa, read-out: minimal inhibitory concentration (MIC), P. aeruginosa PAO1/GN315, AMK-resistant; for minimal inhibitory concentration (MIC): P. aeruginosa PAO1/GN315, AMK-resistant. Type of test: cell-based, Pseudomonas aeruginosa. The method, boiled down: as §1

A further test has as its system S. marcescens TH-0447. The test can be described thus: MIC, agar plate dilution method, S. marcescens TH-0447. Type of test: cell-based, Serratia marcescens. To be noted: for MIC: Serratia marcescens, TH0447, S. marcescens TH-0447, AMK-resistant, read-out: minimal inhibitory concentration (MIC); for minimal inhibitory concentration (MIC): S. marcescens TH-0447, AMK-resistant. The method, boiled down: as §1

A further test concerns P. aeruginosa MSC17707. The test can be described thus: MIC, agar plate dilution method, P. aeruginosa MSC17707. Type of test: cell-based, Pseudomonas aeruginosa. To be noted: for MIC: Pseudomonas aeruginosa, MSC17707, P. aeruginosa MSC17707, AMK-resistant, read-out: minimal inhibitory concentration (MIC); for minimal inhibitory concentration (MIC): P. aeruginosa MSC17707, AMK-resistant. The gist of the method:
as §1

Test [3] has as its system K. pneumoniae ATCC BAA-1705. The experiment in a line: MIC, agar plate dilution method, K. pneumoniae ATCC BAA-1705. Type of test: cell-based, Klebsiella pneumoniae. Particulars: for MIC: Klebsiella pneumoniae, ATCCBAA1705, K. pneumoniae ATCC BAA-1705, KPC-producing strain, read-out: minimal inhibitory concentration (MIC); for minimal inhibitory concentration (MIC): K. pneumoniae ATCC BAA-1705, KPC-producing strain. The method, boiled down:
as §1

In brackets after ≈: the same amount, converted by molar mass.

As for `CNC1C(O[C@H]2OC(CO)[C@@H](NC(CN)CN)[C@H](O)C2O)O[C@H]2CC(N)[C@@H](O[C@H]3CC(O)[C@H](N)CC3N)OC2C1O` (stereo partly shown) [Compound S1-d, 4″-N-(1,3-diaminopropan-2-yl)-5-deoxyapramycin], the MIC in the test with P. aeruginosa MSC01035 was determined as 4 µg/mL (≈ 6.71 µM); with S. aureus MF490 it was 4 µg/mL (≈ 6.71 µM); in test [1], 8 µg/mL (≈ 13.4 µM); with E. faecium ATCC19434, 16 µg/mL (≈ 26.9 µM); in test [2], 1 µg/mL (≈ 1.68 µM); in the test with S. aureus RN4220/pMS520, 1 µg/mL (≈ 1.68 µM). The MIC is 2 µg/mL (≈ 3.36 µM) in the test with P. aeruginosa PAO1; 1 µg/mL (≈ 1.68 µM) in the test with E. coli JM109/pMW218; 1 µg/mL (≈ 1.68 µM) with S. aureus RN4220; 4 µg/mL (≈ 6.71 µM) with S. marcescens GN6944; 4 µg/mL (≈ 6.71 µM) with P. aeruginosa PAO1/GN315; 8 µg/mL (≈ 13.4 µM) with S. marcescens TH-0447. For the same compound, the results for the MIC (with P. aeruginosa MSC17707; in [3]) were 4 µg/mL (≈ 6.71 µM) and 1 µg/mL (≈ 1.68 µM), respectively.
Take `CNC1C(O[C@H]2OC(CO)[C@@H](NC(=N)N)[C@H](O)C2O)O[C@H]2CC(N)[C@@H](O[C@H]3CC(O)[C@H](N)CC3N)OC2C1O` (stereo partly shown) [Compound S1-e, 4″-deamino-5-deoxy-4″-guanidinoapramycin]: the MIC stood at 8 µg/mL (≈ 14.1 µM) with P. aeruginosa MSC01035; 4 µg/mL (≈ 7.07 µM) in the test on S. aureus MF490; 4 µg/mL (≈ 7.07 µM) in test [1]; 4 µg/mL (≈ 7.07 µM) in the test on E. faecium ATCC19434; 0.5 µg/mL (≈ 0.884 µM) in test [2]; 1 µg/mL (≈ 1.77 µM) with S. aureus RN4220/pMS520. Further, the MIC in the test on P. aeruginosa PAO1 came to 4 µg/mL (≈ 7.07 µM); in the test on E. coli JM109/pMW218, 0.5 µg/mL (≈ 0.884 µM); in the test on S. aureus RN4220, 1 µg/mL (≈ 1.77 µM); in the test with S. marcescens GN6944, 4 µg/mL (≈ 7.07 µM); in the test with P. aeruginosa PAO1/GN315, 4 µg/mL (≈ 7.07 µM); in the test on S. marcescens TH-0447, 4 µg/mL (≈ 7.07 µM). For the same compound, the values for the MIC (in the test on P. aeruginosa MSC17707; in [3]) were 8 µg/mL (≈ 14.1 µM) and 2 µg/mL (≈ 3.54 µM), respectively.
For the compound `CNC1C(O[C@H]2OC(CO)[C@@H](NC)[C@H](O)C2O)O[C@H]2CC(N)[C@@H](O[C@@H]3C(N)C[C@@H](N)C(O)[C@H]3O)OC2C1O` (stereo partly drawn) [Compound S1-f, 5-epi-4″-N-methylapramycin], the “minimal inhibitory concentration (MIC)” value with P. aeruginosa MSC01035 came out at 8 µg/mL (≈ 14.5 µM); in the test on S. aureus MF490, 8 µg/mL (≈ 14.5 µM); in [1], 8 µg/mL (≈ 14.5 µM); in the test on E. faecium ATCC19434 it was 16 µg/mL (≈ 28.9 µM); in [2], 1 µg/mL (≈ 1.81 µM); with S. aureus RN4220/pMS520 it was 2 µg/mL (≈ 3.61 µM). The “minimal inhibitory concentration (MIC)” value in the test with P. aeruginosa PAO1 came to 4 µg/mL (≈ 7.23 µM); in the test with E. coli JM109/pMW218, 1 µg/mL (≈ 1.81 µM); in the test with S. aureus RN4220 it was 2 µg/mL (≈ 3.61 µM); in the test on S. marcescens GN6944 it was 4 µg/mL (≈ 7.23 µM); in the test on P. aeruginosa PAO1/GN315, 4 µg/mL (≈ 7.23 µM); with S. marcescens TH-0447 it was 8 µg/mL (≈ 14.5 µM). Also, the entries for the “minimal inhibitory concentration (MIC)” value (in the test with P. aeruginosa MSC17707; in test [3]) were 8 µg/mL (≈ 14.5 µM) and 2 µg/mL (≈ 3.61 µM), respectively.
Take `CNC1C(O[C@H]2OC(CO)[C@@H](NCCN)[C@H](O)C2O)O[C@H]2CC(N)[C@@H](O[C@@H]3C(N)C[C@@H](N)C(O)[C@H]3O)OC2C1O` (stereo partly shown) [Compound S1-g, 4″-N-(2-aminoethyl)-5-epiapramycin]: the MIC stood at 8 µg/mL (≈ 13.7 µM) in the test on P. aeruginosa MSC01035; 8 µg/mL (≈ 13.7 µM) in the test with S. aureus MF490; 4 µg/mL (≈ 6.87 µM) in test [1]; 16 µg/mL (≈ 27.5 µM) in the test with E. faecium ATCC19434; 2 µg/mL (≈ 3.43 µM) in [2]; 2 µg/mL (≈ 3.43 µM) with S. aureus RN4220/pMS520. Also, the MIC in the test on P. aeruginosa PAO1 was found to be 4 µg/mL (≈ 6.87 µM); in the test with E. coli JM109/pMW218 it was 1 µg/mL (≈ 1.72 µM); in the test with S. aureus RN4220, 4 µg/mL (≈ 6.87 µM); in the test with S. marcescens GN6944, 8 µg/mL (≈ 13.7 µM); in the test on P. aeruginosa PAO1/GN315, 4 µg/mL (≈ 6.87 µM); in the test with S. marcescens TH-0447, 8 µg/mL (≈ 13.7 µM). The MIC in the test on P. aeruginosa MSC17707 came to 4 µg/mL (≈ 6.87 µM); in test [3] it was 2 µg/mL (≈ 3.43 µM).
As for `CNC1C(O[C@H]2OC(CO)[C@@H](NCCCN)[C@H](O)C2O)O[C@H]2CC(N)[C@@H](O[C@@H]3C(N)C[C@@H](N)C(O)[C@H]3O)OC2C1O` (stereo partly shown) [Compound S1-h, 4″-N-(3-aminopropyl)-5-epiapramycin], the “minimal inhibitory concentration (MIC)” value with P. aeruginosa MSC01035 worked out at 8 µg/mL (≈ 13.4 µM); in the test with S. aureus MF490 it was 8 µg/mL (≈ 13.4 µM); in test [1] it was 8 µg/mL (≈ 13.4 µM); in the test on E. faecium ATCC19434, 16 µg/mL (≈ 26.8 µM); in test [2] it was 1 µg/mL (≈ 1.68 µM); with S. aureus RN4220/pMS520, 2 µg/mL (≈ 3.35 µM). Further, the “minimal inhibitory concentration (MIC)” value in the test with P. aeruginosa PAO1 worked out at 4 µg/mL (≈ 6.7 µM); in the test on E. coli JM109/pMW218 it was 1 µg/mL (≈ 1.68 µM); with S. aureus RN4220, 2 µg/mL (≈ 3.35 µM); with S. marcescens GN6944, 8 µg/mL (≈ 13.4 µM); in the test on P. aeruginosa PAO1/GN315, 4 µg/mL (≈ 6.7 µM); in the test with S. marcescens TH-0447, 8 µg/mL (≈ 13.4 µM). In addition, the entries for the “minimal inhibitory concentration (MIC)” value (in the test with P. aeruginosa MSC17707; in test [3]) were 4 µg/mL (≈ 6.7 µM) and 2 µg/mL (≈ 3.35 µM), respectively.
